# Test results published in patent US11279697B2, “Aromatic derivative, preparation method for same, and medical applications thereof” (BIOARDIS LLC, priority 2017, dated 2022).
# Molecular target: human FGFR4 protein (460-802 amino acids) (Homo sapiens (Human), UniProt P22455)
# Assay: FGFR4 Activity Inhibition Test (HTRF KinEASE-TK in vitro kinase assay)
# Format: biochemical
# Settings: compound-enzyme incubation 60 min at room temperature, kinase reaction 37° C. 40 min, 10 concentration points
# Method: The influence of the compound of the present invention on the activity of the tyrosine kinase FGFR4 was evaluated by an in vitro kinase assay experiment. The experimental method is summarized as follows: A HTRF® KinEASE™-TK 20000 tests kinase assay kit from CISBIO Corp. was used. The kit provided a biotin-labeled substrate, an EU-labeled phosphorylation site-specific antibody, and XL665-labeled avidin and a related buffer. FGFR4 phosphorylated the substrate, Eu-Ab identified the phosphorylated substrate, and XL665-SA binded to the biotin on the substrate, making Eu get closer to XL665, thus generating the HTRF signal. Changes in the activity of kinase was detected by reading the intensity of the HTRF signal. In the kinase assay experiment, there were mainly two steps of reaction: kinase reaction and assay reaction, respectively. In the kinase reaction, the kinase consumed ATP to phosphorylate the substrate, and at the same time produced a substrate containing a phosphate group. In the assay reaction, an assay reagent was added to terminate the kinase reaction. At the same time, the specific antibody and the XL665-labeled avidin in the assay reagent were binded to the phosphate group on the substrate and biotin respectively to generate HTRF signals. The signal intensity was directly proportional to the phosphorylation level of the substrate, and thereby the activity of the kinase FGFR4 could be quantitatively assayed. During the assay, the binding and incubation of the compound with the enzyme was carried out at room temperature for 60 min. The kinase reaction was carried out at a constant temperature of 37° C. for 40 min. […] The kinase substrates were TK (commercially available from Cisbio) and ATP (Sigma). The optical signals were read by a microplate reader TECAN Spark 10M plate reader (TECAN). The kinase reaction buffer comprised 1× Enzymatic buffer (CISBIO) 5 mM MgCl2 (Sigma) and 1 mM DTT (Sigma). […] First, the compound was dissolved and diluted with 100% DMSO into a 96-well plate at 3 concentrations: 4 mM, 40 μM, and 0.4 μM. […] Each concentration point was provided with two copy holes (starting point 10 μM, 3-fold dilution). First, 6 μL of the kinase solution was added into the 384-well assay plate, mixed uniformly and then incubated at room temperature for 60 min. Then 4 μL of the substrate reaction solution was added, and the total reaction volume was 10 μL. […] Subsequently, 10 μL of the kinase assay reagent was added and the reaction was terminated. Then the numerical values were read on the TECAN plate reader. The inhibition percentage was calculated based on the following formula: % inhibition=[1−(RLUcompound−RLUmin)/(RLUmax−RLUmin)]×100 wherein RLUcompound is the luminescence reading at the given compound concentration, RLUmin is the luminescence reading without the addition of kinase, and RLUmax is the luminescence reading without the addition of the compound. IC50 of the compound was calculated by the XLfit program in Excel.
# human FGFR4 protein (460-802 amino acids), sequence (P22455 460-802): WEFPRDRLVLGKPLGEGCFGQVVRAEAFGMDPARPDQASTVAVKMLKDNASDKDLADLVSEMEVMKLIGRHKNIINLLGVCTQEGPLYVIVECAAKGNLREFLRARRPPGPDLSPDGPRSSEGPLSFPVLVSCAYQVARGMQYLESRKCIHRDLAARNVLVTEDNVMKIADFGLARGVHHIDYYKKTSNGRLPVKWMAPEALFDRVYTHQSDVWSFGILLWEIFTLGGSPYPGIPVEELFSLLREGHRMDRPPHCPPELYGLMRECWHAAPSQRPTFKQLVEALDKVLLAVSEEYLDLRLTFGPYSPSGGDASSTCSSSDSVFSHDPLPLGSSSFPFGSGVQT
row,SMILES,IC50 [nM]
1,"C=CC(=O)Nc1ccc(N2CCOCC2)cc1-c1n[nH]c2c1CCC(c1c(Cl)c(OC)cc(OC)c1Cl)=C2 [Compound 300, N-(2-(6-(2,6-dichloro-3,5-dimethoxyphenyl)-4,5-dihydro-1H-indazol-3-yl)-4-morpholinophenyl)acrylamide]",504
2,"C=CC(=O)Nc1cnn(C)c1-c1n[nH]c2c1CC[C@@H](c1c(F)c(OC)cc(OC)c1F)C2 (single isomer, unassigned) [Compound 281-P2, N-(5-(6-(2,6-difluoro-3,5-dimethoxyphenyl)-4,5,6,7-tetrahydro-1H-indazol-3-yl)-1-methyl-1H-pyrazol-4-yl)acrylamide]",2.96
3,"C=CC(=O)Nc1cnn(C)c1-c1n[nH]c2c1CC[C@@H](c1c(F)c(OC)cc(OC)c1Cl)C2 (single isomer, unassigned) [Compound 303-P1, N-(5-(6-(2-chloro-6-fluoro-3,5-dimethoxyphenyl)-4,5,6,7-tetrahydro-1H-indazol-3-yl)-1-methyl-1H-pyrazol-4-yl)acrylamide]",6
4,"C=CC(=O)Nc1ccc(F)cc1-c1n[nH]c2c1CCC(c1c(Cl)c(OC)cc(OC)c1Cl)=C2 [Compound 297, N-(2-(6-(2,6-dichloro-3,5-dimethoxyphenyl)-4,5-dihydro-1H-indazol-3-yl)-4-fluorophenyl)acrylamide]",236
5,"C=CC(=O)Nc1ccc(N2CCN(C)CC2)cc1-c1n[nH]c2c1CC[C@@H](c1c(F)c(OC)cc(OC)c1F)C2 (single isomer, unassigned) [Compound 301-P1, N-(2-(6-(2,6-difluoro-3,5-dimethoxyphenyl)-4,5,6,7-tetrahydro-1H-indazol-3-yl)-4-(4-methylpiperazin-1-yl)phenyl)acrylamide]",3.4
6,"C=CC(=O)Nc1cnn(C)c1-c1n[nH]c2c1CC[C@@H](c1c(F)c(OC)cc(OC)c1Cl)C2 (single isomer, unassigned) [Compound 303-P2, N-(5-(6-(2-chloro-6-fluoro-3,5-dimethoxyphenyl)-4,5,6,7-tetrahydro-1H-indazol-3-yl)-1-methyl-1H-pyrazol-4-yl)acrylamide]",5.5
7,"C=CC(=O)Nc1cnn(C)c1-c1n[nH]c2c1CC[C@@H](c1cc(OC)cc(OC)c1F)C2 (single isomer, unassigned) [Compound 302-P2, N-(5-(6-(2-fluoro-3,5-dimethoxyphenyl)-4,5,6,7-tetrahydro-1H-indazol-3-yl)-1-methyl-1H-pyrazol-4-yl)acrylamide]",35.4
8,"C=CC(=O)Nc1cnn(C)c1-c1n[nH]c2c1CC[C@@H](c1cc(OC)cc(OC)c1)C2 (single isomer, unassigned) [Compound 310-P2, N-(5-(6-(3,5-dimethoxyphenyl)-4,5,6,7-tetrahydro-1H-indazol-3-yl)-1-methyl-1H-pyrazol-4-yl)acrylamide]",171
9,"C=CC(=O)Nc1cc(Cl)ccc1-c1n[nH]c2c1CC[C@@H](c1c(Cl)c(OC)cc(OC)c1Cl)C2 (single isomer, unassigned) [Compound 289-P1, N-(5-chloro-2-(6-(2,6-dichloro-3,5-dimethoxyphenyl)-4,5,6,7-tetrahydro-1H-indazol-3-yl)phenyl)acrylamide]",109
10,"C=CC(=O)Nc1ccccc1-c1n[nH]c2c1CCC(c1cc(OC)cc(OC)c1F)C2 (stereo not drawn) [Compound 114, N-(2-(6-(2-fluoro-3,5-dimethoxyphenyl)-4,5,6,7-tetrahydro-1H-indazol-3-yl)phenyl)acrylamide]",158
11,"C=CC(=O)Nc1ccc(Cl)cc1-c1n[nH]c2c1CC[C@@H](c1c(Cl)c(OC)cc(OC)c1Cl)C2 (single isomer, unassigned) [Compound 287-P1, N-(4-chloro-2-(6-(2,6-dichloro-3,5-dimethoxyphenyl)-4,5,6,7-tetrahydro-1H-indazol-3-yl)phenyl)acrylamide]",158
12,"C=CC(=O)Nc1cnn(C)c1-c1n[nH]c2c1CC[C@@H](c1cc(OC)cc(OC)c1Cl)C2 (single isomer, unassigned) [Compound 311-P1, N-(5-(6-(2-chloro-3,5-dimethoxyphenyl)-4,5,6,7-tetrahydro-1H-indazol-3-yl)-1-methyl-1H-pyrazol-4-yl)acrylamide]",203
13,"C=CC(=O)Nc1ccc(N2CCN(C)CC2)cc1-c1n[nH]c2c1CC[C@@H](c1c(F)c(OC)cc(OC)c1F)C2 (single isomer, unassigned) [Compound 301-P2, N-(2-(6-(2,6-difluoro-3,5-dimethoxyphenyl)-4,5,6,7-tetrahydro-1H-indazol-3-yl)-4-(4-methylpiperazin-1-yl)phenyl)acrylamide]",11.8

# More lines, now with the values ahead:
row,IC50 [nM],SMILES
1,45,"C=CC(=O)Nc1ccc(N2CCN(C)CC2)cc1-c1n[nH]c2c1CC[C@@H](c1c(Cl)c(OC)cc(OC)c1Cl)C2 (single isomer, unassigned) [Compound 283-P2, N-(2-(6-(2,6-dichloro-3,5-dimethoxyphenyl)-4,5,6,7-tetrahydro-1H-indazol-3-yl)-4-(4-methylpiperazin-1-yl)phenyl)acrylamide]"
2,210,"C=CC(=O)Nc1cc(Cl)ccc1-c1n[nH]c2c1CC[C@@H](c1c(Cl)c(OC)cc(OC)c1Cl)C2 (single isomer, unassigned) [Compound 289-P2, N-(5-chloro-2-(6-(2,6-dichloro-3,5-dimethoxyphenyl)-4,5,6,7-tetrahydro-1H-indazol-3-yl)phenyl)acrylamide]"
3,91.1,"C=CC(=O)Nc1ccc(Cl)cc1-c1n[nH]c2c1CC[C@@H](c1c(Cl)c(OC)cc(OC)c1Cl)C2 (single isomer, unassigned) [Compound 287-P2, N-(4-chloro-2-(6-(2,6-dichloro-3,5-dimethoxyphenyl)-4,5,6,7-tetrahydro-1H-indazol-3-yl)phenyl)acrylamide]"
4,348,"CC#CC(=O)Nc1ccccc1-c1cc(CCc2c(Cl)c(OC)cc(OC)c2Cl)[nH]n1 [Compound 096, N-(2-(5-(2,6-dichloro-3,5-dimethoxyphenethyl)-1H-pyrazol-3-yl)phenyl)but-2-ynoic amide]"
5,446,"C=CC(=O)Nc1cnn(C)c1-c1n[nH]c2c1CC[C@@H](c1cc(OC)cc(OC)c1)C2 (single isomer, unassigned) [Compound 310-P1, N-(5-(6-(3,5-dimethoxyphenyl)-4,5,6,7-tetrahydro-1H-indazol-3-yl)-1-methyl-1H-pyrazol-4-yl)acrylamide]"
6,190,"C=CC(=O)Nc1ccc(N2CCN(C)CC2)cc1-c1n[nH]c2c1CC[C@@H](c1c(Cl)c(OC)cc(OC)c1Cl)C2 (single isomer, unassigned) [Compound 283-P1, N-(2-(6-(2,6-dichloro-3,5-dimethoxyphenyl)-4,5,6,7-tetrahydro-1H-indazol-3-yl)-4-(4-methylpiperazin-1-yl)phenyl)acrylamide]"
7,85.5,"C=CC(=O)Nc1cnn(C)c1-c1n[nH]c2c1CC[C@@H](c1cc(OC)cc(OC)c1F)C2 (single isomer, unassigned) [Compound 302-P1, N-(5-(6-(2-fluoro-3,5-dimethoxyphenyl)-4,5,6,7-tetrahydro-1H-indazol-3-yl)-1-methyl-1H-pyrazol-4-yl)acrylamide]"
8,118,"C=CC(=O)Nc1cc(F)ccc1-c1n[nH]c2c1CCC(c1c(Cl)c(OC)cc(OC)c1Cl)=C2 [Compound 296, N-(2-(6-(2,6-dichloro-3,5-dimethoxyphenyl)-4,5-dihydro-1H-indazol-3-yl)-5-fluorophenyl)acrylamide]"
9,5.73,"C=CC(=O)Nc1cnn(C)c1-c1n[nH]c2c1CC[C@@H](c1c(F)c(OC)cc(OC)c1F)C2 (single isomer, unassigned) [Compound 281-P1, N-(5-(6-(2,6-difluoro-3,5-dimethoxyphenyl)-4,5,6,7-tetrahydro-1H-indazol-3-yl)-1-methyl-1H-pyrazol-4-yl)acrylamide]"
10,129,"C=CC(=O)Nc1cnn(C)c1-c1n[nH]c2c1CC[C@@H](c1cc(OC)cc(OC)c1Cl)C2 (single isomer, unassigned) [Compound 311-P2, N-(5-(6-(2-chloro-3,5-dimethoxyphenyl)-4,5,6,7-tetrahydro-1H-indazol-3-yl)-1-methyl-1H-pyrazol-4-yl)acrylamide]"
11,29.2,"C=CC(=O)Nc1ccccc1-c1n[nH]c2c1CCC(c1c(F)c(OC)cc(OC)c1F)C2 (stereo not drawn) [Compound 093, N-(2-(6-(2,6-difluoro-3,5-dimethoxyphenyl)-4,5,6,7-tetrahydro-1H-indazol-3-yl)phenyl)acrylamide]"
